Results published in the supplement of paper PMC11208160.

Assay: recombinant barcode read abundance after kanamycin selection (control-corrected) (log10(CPM+1)); higher = more efficient recombination; sequences stand for … in AGTGCAGAGAAAATCGGCCAGTTTTCTCTGCCTGCAGTCCGCATGCCGT…AGATTTATGCAGCGGACTGCCTTTCTCCCAAAGTGATAAACCGGACAGTATCATGGACCGGTTTTCCCGGTAATCCGTATTTGCAAGGTTGGTTTCACT; site = the 11-nt target
Procedure: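 Pooled E. coli target-specificity screen for the IS621 bridge recombinase. Each library plasmid pairs an 11-nt target (CT core) with a bridge RNA whose target-binding loop (9-nt LTG + 4-nt RTG) is reprogrammed; the rest of the 177-nt WT IS621 bridge RNA scaffold is fixed. The plasmid is co-electroporated with a WT donor plasmid; recombinase is induced with 0.1 mM IPTG and recombinants are selected on kanamycin. Recombinant barcodes are sequenced, converted to CPM, averaged over two biological replicates and corrected by the unselected control CPM. Molecule = full bridge RNA written as DNA: LTG = specificity nt 1-9, RTG = reverse complement of specificity nt 8-11, in the WT scaffold.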
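Also: IS621 recombinase and bridge RNA in Escherichia coli cells.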

Row | Sequence | recombinant barcode read abundance (log10)
1 | ACGAGTACTTGGGTTCTAACCTGTTGCGG (site ACGAGTACTCA) | 0.392
2 | ACGAGTACTTGGGTTCTAACCTGTTGCGG (site ACGAGTACTCC) | 1.82
3 | ACGATTCCTTGGGTTCTAACCTGTTGCTT (site ACGAATCCTAA) | 0.0108
4 | ACGATTCCTTGGGTTCTAACCTGTTGCTT (site ACGACTCCTAA) | 0.142
5 | ACGATTCCTTGGGTTCTAACCTGTTGCTT (site ACGAGTCCTAA) | 0.0586
6 | ACGATTCCTTGGGTTCTAACCTGTTGCTT (site ACGATTCCTAA) | 0.0242
7 | ACGCAGTCTTGGGTTCTAACCTGTTGCCT (site ACGCAATCTAG) | 0.313
8 | ACGCAGTCTTGGGTTCTAACCTGTTGCCT (site ACGCACTCTAG) | 0.0573
9 | ACGCAGTCTTGGGTTCTAACCTGTTGCCT (site ACGCAGTCTAG) | 0.798
10 | ACGCAGTCTTGGGTTCTAACCTGTTGCCT (site ACGCATTCTAG) | 0.129
11 | ACGGACCCTTGGGTTCTAACCTGTTGCAT (site ACGAACCCTAG) | 0.225
12 | ACGGACCCTTGGGTTCTAACCTGTTGCAT (site ACGGACCCTAT) | 2.82
13 | ACGGAGACTTGGGTTCTAACCTGTTGCAT (site ACGGAGACTAT) | 2.78
14 | ACGGAGACTTGGGTTCTAACCTGTTGCAT (site GTACTACCTCG) | 0.108
15 | ACGGCTCCTTGGGTTCTAACCTGTTGCTG (site ACGACTCCTCA) | 0.0439
16 | ACGGCTCCTTGGGTTCTAACCTGTTGCTG (site ACGCCTCCTCA) | 0.116
17 | ACGGCTCCTTGGGTTCTAACCTGTTGCTG (site ACGGCTCCTCA) | 1.35
18 | ACGGCTCCTTGGGTTCTAACCTGTTGCTG (site ACGTCTCCTCA) | 0.123
19 | ACGGGGCCTTGGGTTCTAACCTGTTGCCG (site ACGGGGCCTCG) | 1.88
20 | ACGGGGCCTTGGGTTCTAACCTGTTGCCG (site GTATATACTAA) | 0.116
21 | ACGGGTACTTGGGTTCTAACCTGTTGCCA (site AAGGGTTCTTG) | 0.355
22 | ACGGGTACTTGGGTTCTAACCTGTTGCCA (site ACGGGTACTTG) | 1.02
23 | ACGGTTGCTTGGGTTCTAACCTGTTGCCT (site ACGGGTGCTAG) | 0.434
24 | ACGGTTGCTTGGGTTCTAACCTGTTGCCT (site ACGGTTGCTAG) | 2.22
25 | ACGTAATCTTGGGTTCTAACCTGTTGCTT (site ACGTAATCTAA) | 0.207

Row | Sequence | recombinant barcode read abundance (log10)
26 | ACGTAATCTTGGGTTCTAACCTGTTGCTT (site CGGTAATCTAA) | 0.246
27 | ACGTGAACTTGGGTTCTAACCTGTTGCCT (site ACATGAACTAG) | 0.532
28 | ACGTGAACTTGGGTTCTAACCTGTTGCCT (site ACCTGAACTAG) | 0.0714
29 | ACGTGAACTTGGGTTCTAACCTGTTGCCT (site ACGTGAACTAG) | 0.416
30 | ACGTGAACTTGGGTTCTAACCTGTTGCCT (site ACTTGAACTAG) | 0.0355
31 | ACGTGTCCTTGGGTTCTAACCTGTTGCGG (site ACGTGTCCTCC) | 1.88
32 | ACGTGTCCTTGGGTTCTAACCTGTTGCGG (site GGAGAGACTAT) | 0.242
33 | ACGTTGTCTTGGGTTCTAACCTGTTGCCT (site ACATTGTCTAG) | 1.24
34 | ACGTTGTCTTGGGTTCTAACCTGTTGCCT (site ACCTTGTCTAG) | 0.0624
35 | ACGTTGTCTTGGGTTCTAACCTGTTGCCT (site ACGTTGTCTAG) | 0.767
36 | ACGTTGTCTTGGGTTCTAACCTGTTGCCT (site ACTTTGTCTAG) | 0.0891
37 | ACTAAGACTTGGGTTCTAACCTGTTGCTG (site ACTAAGACTCA) | 1.96
38 | ACTAAGACTTGGGTTCTAACCTGTTGCTG (site AGTAAGACTTA) | 0.0302
39 | ACTACTCCTTGGGTTCTAACCTGTTGCGA (site ACTACTCCTTC) | 0.93
40 | ACTACTCCTTGGGTTCTAACCTGTTGCGA (site ACTAGTCCTTG) | 0.119
41 | ACTAGGACTTGGGTTCTAACCTGTTGCGG (site ACTAGGACTAC) | 0.0821
42 | ACTAGGACTTGGGTTCTAACCTGTTGCGG (site ACTAGGACTCC) | 2.93
43 | ACTAGGACTTGGGTTCTAACCTGTTGCGG (site ACTAGGACTGC) | 0.444
44 | ACTAGGACTTGGGTTCTAACCTGTTGCGG (site ACTAGGACTTC) | 0.302
45 | ACTAGTCCTTGGGTTCTAACCTGTTGCAT (site ACTAGTCCTAA) | 0.239
46 | ACTAGTCCTTGGGTTCTAACCTGTTGCAT (site ACTAGTCCTAC) | 0.0726
47 | ACTAGTCCTTGGGTTCTAACCTGTTGCAT (site ACTAGTCCTAG) | 0.0896
48 | ACTAGTCCTTGGGTTCTAACCTGTTGCAT (site ACTAGTCCTAT) | 1.29
49 | ACTAGTCCTTGGGTTCTAACCTGTTGCGT (site ACTAGTCCTAA) | 0.0427
50 | ACTAGTCCTTGGGTTCTAACCTGTTGCGT (site ACTAGTCCTAC) | 2.25

Row | Sequence | recombinant barcode read abundance (log10)
51 | ACTAGTCCTTGGGTTCTAACCTGTTGCGT (site ACTAGTCCTAG) | 0.133
52 | ACTAGTCCTTGGGTTCTAACCTGTTGCGT (site ACTAGTCCTAT) | 0.894
53 | ACTATAACTTGGGTTCTAACCTGTTGCTT (site ACTATAACTAA) | 0.401
54 | ACTATAACTTGGGTTCTAACCTGTTGCTT (site ACTCTAACTAA) | 0.535
55 | ACTATAACTTGGGTTCTAACCTGTTGCTT (site ACTGTAACTAA) | 0.125
56 | ACTATAACTTGGGTTCTAACCTGTTGCTT (site ACTTTAACTAA) | 0.0487
57 | ACTCACACTTGGGTTCTAACCTGTTGCTT (site ACTCACACTAA) | 1.06
58 | ACTCACACTTGGGTTCTAACCTGTTGCTT (site GGAGCTCCTCG) | 0.00954
59 | ACTCAGACTTGGGTTCTAACCTGTTGCAC (site ACTCAGACTGT) | 1.9
60 | ACTCAGACTTGGGTTCTAACCTGTTGCAC (site GGAGGTCCTCG) | 0.222
61 | ACTCCAGCTTGGGTTCTAACCTGTTGCCT (site ACTCCAGCTAG) | 1.79
62 | ACTCCAGCTTGGGTTCTAACCTGTTGCCT (site TAGTTTACTCT) | 0.0793
63 | ACTCGTTCTTGGGTTCTAACCTGTTGCTT (site ACTCGTTCTAA) | 0.326
64 | ACTCGTTCTTGGGTTCTAACCTGTTGCTT (site GCTAGTTCTAA) | 0.0673
65 | ACTCTACCTTGGGTTCTAACCTGTTGCTA (site ACCCTCCCTTA) | 0.0533
66 | ACTCTACCTTGGGTTCTAACCTGTTGCTA (site ACTCTACCTTA) | 1.12
67 | ACTCTAGCTTGGGTTCTAACCTGTTGCTC (site ACTCTAGCTGA) | 1.05
68 | ACTCTAGCTTGGGTTCTAACCTGTTGCTC (site GCTCTAGCTTA) | 0.265
69 | ACTCTGTCTTGGGTTCTAACCTGTTGCTT (site ACCCTATCTAA) | 0.124
70 | ACTCTGTCTTGGGTTCTAACCTGTTGCTT (site ACTCTGTCTAA) | 1.86
71 | ACTGATGCTTGGGTTCTAACCTGTTGCCT (site ACTGATACTAG) | 1.08
72 | ACTGATGCTTGGGTTCTAACCTGTTGCCT (site ACTGATCCTAG) | 0.0449
73 | ACTGATGCTTGGGTTCTAACCTGTTGCCT (site ACTGATGCTAG) | 2.09
